The subject of data set [1] is PC-12. Briefly: Neuroprotective activity against TBHP-induced cellular damage in rat PC12 cells assessed as cell viability at 10 uM pretreated for 1 hr followed by TBHP addition and measured after 3 hrs by CCK8 assay (reference value: 27.3%). As to conditions: for viability at 10 µM: read-out: Activity. The class given is functional. In general terms: Formazan colour is commonly taken as a measure of viable cells.

For data set [2], the system named is PC-12. Kind of data set: Toxicity in TBHP treated rat PC12 cells assessed as reduction cell viability at 10 uM pretreated for 1 hr followed by TBHP addition and measured after 3 hrs by CCK8 assay. Type of data set: cell-based. The conditions noted are these: pc-12, 3 h.
For data set [3], the system named is RAW264.7. Briefly: Antiinflammatory activity in mouse RAW264.7 cells assessed as inhibition of LPS/IFNgamma-induced NO production by measuring NO level preincubated for 2 hrs and followed by LPS/IFNgamma addition and measured after 24 hrs by Griess assay. Type of data set: functional, cell-based.
The target of data set [4] is Acetylcholinesterase (Electrophorus electricus) (UniProt O42275). Kind of data set: (§1) Inhibition of electric eel AChE using acetylthiocholine iodide as substrate pretreated for 15 mins followed by substrate addition and measured after 60 mins by Ellman's method. For orientation: In Ellman's method for cholinesterases, released thiocholine reacts with DTNB.
The target in data set [5] is Acetylcholinesterase (Electrophorus electricus, UniProt O42275). The description is as §1.
For data set [6], the target named is Acetylcholinesterase (Electrophorus electricus) (UniProt O42275). Kind of data set: Inhibition of electric eel AChE at 12.5 uM using acetylthiocholine iodide as substrate pretreated for 15 mins followed by substrate addition and measured after 60 mins by Ellman's method relative to control.

Activity calls are given as the source filed them. The rule behind the calls is not given here.

Sequence of Acetylcholinesterase (Electrophorus electricus) (O42275 24-633 limits assumed): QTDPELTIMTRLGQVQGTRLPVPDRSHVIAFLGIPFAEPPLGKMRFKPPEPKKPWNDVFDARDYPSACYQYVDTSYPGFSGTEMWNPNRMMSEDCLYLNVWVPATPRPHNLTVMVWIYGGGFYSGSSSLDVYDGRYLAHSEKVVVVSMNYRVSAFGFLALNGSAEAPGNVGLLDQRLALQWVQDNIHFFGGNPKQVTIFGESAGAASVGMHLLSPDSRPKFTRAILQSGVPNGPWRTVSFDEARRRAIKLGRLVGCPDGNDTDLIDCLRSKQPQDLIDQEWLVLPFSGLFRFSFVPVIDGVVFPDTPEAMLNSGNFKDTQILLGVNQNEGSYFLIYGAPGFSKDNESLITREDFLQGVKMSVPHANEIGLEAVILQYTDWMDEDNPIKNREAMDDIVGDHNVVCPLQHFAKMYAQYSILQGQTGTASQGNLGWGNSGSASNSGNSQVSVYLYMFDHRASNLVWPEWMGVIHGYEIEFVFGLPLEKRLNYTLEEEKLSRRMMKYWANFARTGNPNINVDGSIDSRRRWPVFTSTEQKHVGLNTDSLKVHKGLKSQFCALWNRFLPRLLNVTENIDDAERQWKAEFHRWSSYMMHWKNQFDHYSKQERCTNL
Sequence of Acetylcholinesterase (O42275 whole entry): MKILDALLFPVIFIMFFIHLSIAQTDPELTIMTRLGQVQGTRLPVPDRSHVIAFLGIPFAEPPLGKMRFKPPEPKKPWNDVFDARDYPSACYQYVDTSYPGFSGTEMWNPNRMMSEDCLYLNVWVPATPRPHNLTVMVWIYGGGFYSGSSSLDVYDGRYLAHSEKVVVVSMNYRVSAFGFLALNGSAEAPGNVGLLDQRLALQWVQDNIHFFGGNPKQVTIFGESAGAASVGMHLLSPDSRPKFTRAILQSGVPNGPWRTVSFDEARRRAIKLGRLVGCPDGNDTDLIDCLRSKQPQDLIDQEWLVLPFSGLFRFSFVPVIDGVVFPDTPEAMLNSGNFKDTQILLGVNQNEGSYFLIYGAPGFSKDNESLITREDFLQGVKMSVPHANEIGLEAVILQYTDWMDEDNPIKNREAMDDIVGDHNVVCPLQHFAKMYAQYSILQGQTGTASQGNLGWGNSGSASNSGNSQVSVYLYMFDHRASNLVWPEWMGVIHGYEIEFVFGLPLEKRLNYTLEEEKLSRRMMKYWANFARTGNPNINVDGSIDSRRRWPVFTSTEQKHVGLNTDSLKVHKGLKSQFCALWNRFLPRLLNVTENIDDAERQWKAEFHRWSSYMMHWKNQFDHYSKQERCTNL

`O=c1c(O)c(-c2ccc(O)c(O)c2)oc2cc(O)cc(O)c12` [QUERCETIN]: the viability at 10 µM in data set [1] was 65.1%.
`COc1cc([C@@H]2Oc3c(OC)cc(/C=C/C(=O)NCCc4ccc(O)cc4)cc3[C@H]2C(=O)NCCc2ccc(O)cc2)ccc1O` [GROSSAMIDE]: the Activity entry in data set [2] is recorded as “Toxic”. In addition, the half-maximal inhibitory concentration (IC50) in data set [3] was found to be 24.7 µM; in data set [5], 39.3 µM. Also, the inhibition entry in data set [3] and in data set [4] was “Dose-dependent effect” each time. For the same compound, in data set [1], the result was inactive.
As for `COc1cc(/C=C/c2ccc(O)cc2)cc(OC)c1` [PTEROSTILBENE], in data set [3], the IC50 came to 30 µM and the inhibition entry is “Dose-dependent effect”.
For the compound `COc1cc(/C=C/c2ccc3c(c2)[C@H](c2cc(OC)cc(OC)c2)[C@@H](c2ccc(O)cc2)O3)cc(OC)c1`, the inhibition was > 50% in data set [6] and “Dose-dependent effect” in data set [3]. For the same compound, the IC50 in data set [3] amounted to 24 µM; in data set [5], 11.7 µM. In addition, in data set [1], the viability at 10 µM was 75.5%.
In the case of `Oc1ccc([C@H]2Oc3ccc(/C=C/c4cc(O)cc(O)c4)cc3[C@@H]2c2cc(O)cc(O)c2)cc1`, the inhibition was > 50% in data set [6] and “Dose-dependent effect” in data set [3]. In addition, the figures for the IC50 in data set [3] and in data set [5] were 80.2 µM and 4.3 µM, respectively. Also, the viability at 10 µM in data set [1] was 60.2%.
For `COC(=O)CCc1cc(OC)c2c(c1)[C@H](C(=O)OC)[C@@H](c1ccc(O)c(OC)c1)O2`, in data set [3], the IC50 was 231 µM and the inhibition entry was “Dose-dependent effect”. Also, the inhibition entry in data set [4] is “inactive”.
Regarding `COc1cc(/C=C/C(=O)OCCCc2cc(OC)c3c(c2)C(COC(=O)/C=C/c2ccc(O)c(OC)c2)C(c2ccc(O)c(OC)c2)O3)ccc1O` (stereo unspecified), the IC50 in data set [3] worked out at 9.4 µM; in data set [5], 29.8 µM. Besides, the inhibition entry in data set [3] and in data set [4] was “Dose-dependent effect” in each case. Moreover, the viability at 10 µM in data set [1] was determined as 72.7%.
Turning to `Oc1ccc(/C=C/c2cc(O)cc(O)c2)cc1` [RESVERATROL], in data set [3], the IC50 stood at 44.1 µM and the inhibition result is “Dose-dependent effect”. The viability at 10 µM in data set [1] came out at 57.5%.
`COc1cc([C@H]2Oc3c(OC)cc(CCCO)cc3[C@@H]2CO)ccc1O` [DIHYDRODEHYDRODICONIFERY ALCOHOL]: in data set [3], the IC50 was 60.4 µM and the inhibition entry was “Dose-dependent effect”. For the same compound, the inhibition entry in data set [4] was “inactive”.
Take `COC(=O)/C=C/c1cc(OC)c2c(c1)[C@H](C(=O)OC)[C@@H](c1ccc(O)c(OC)c1)O2` (racemic): in data set [3], the IC50 worked out at 51.4 µM and the inhibition entry was “Dose-dependent effect”. Moreover, in data set [4], the inhibition entry was “inactive”.

For orientation: IC50 means the point on the concentration scale where inhibition reaches its midpoint. As usually defined, the inhibition is the change of the read-out against control, counted positive when it falls.

(Values after ChEMBL document CHEMBL4346751, “Comparative analysis of stilbene and benzofuran neolignan derivatives as acetylcholinesterase inhibitors with neuroprotective and anti-inflammatory activities” (Bioorg Med Chem Lett, 2019).)
